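Where inhibition never reached the appropriate level, the endpoint shown equals the highest concentration tested. Otherwise, values were interpolated linearly from a five-concentration, 48-hour dose response in 96-well plates. TGI marks complete inhibition of growth.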

Common to all, as to assay: NCI-60 cell line screen, 48 h
Test [1] deals with HOP-18 NSCLC.
For test [2], the system named is DLD-1 colon.
The test system of test [3] is SNB-78 CNS.
The subject of test [4] is LXFL 529 NSCLC.
Test [5] has as its system KM20L2 colon.
Test [6] relates to DMS 114 small cell lung.
Test [7] deals with DMS 273 small cell lung.
Test [8] deals with XF 498 CNS.
Test [9] concerns M19-MEL melanoma.

For the molecule `CCCN1CN(C(C(=O)N[C@@H]2C(=O)N3C2SC(C)(C)C3C(=O)O)c2ccccc2)CSC1=S` (some centres undefined), the TGI in [1] was greater than 100 µM; in test [2], greater than 100 µM; in [3] it was greater than 100 µM; in test [4] it was greater than 100 µM; in test [5] it was greater than 100 µM; in [6], 94.1 µM. The TGI in test [7], in test [8] and in test [9] was greater than 100 µM each time.

`C=CCNC(=S)N1c2ccccc2NC(=O)CC1C` (centres undefined): the TGI in test [3], in test [4], in [5], in test [6], in test [7] and in [8] was greater than 100 µM in each case. This molecule also yielded a TGI in [9] greater than 100 µM.

Consider `CCOC(=O)C(Cc1ccccc1)NC(=O)c1ccc(N=NN(C)C)cc1` (centres undefined), for which the TGI in [2], in [4], in test [6], in test [7] and in [9] was greater than 100 µM each time.

In the case of `CCOc1ccccc1N=Nc1c(-c2ccccc2)nn(C(=O)CC(=O)Nc2cccc(Cl)c2)c1-c1ccccc1`, the TGI in test [1], in test [2], in test [3], in test [4], in test [5] and in test [6] was greater than 100 µM throughout. Moreover, the TGI in test [7], in [8] and in [9] was greater than 100 µM each time.

`O=C(NCc1ccccc1)c1cc2cc(O)c(O)cc2cn1`: the TGI is 41.4 µM in [1]; greater than 100 µM in [2]; greater than 100 µM in test [3]; greater than 100 µM in [4]; 84.6 µM in test [5]; 24 µM in test [6]. The TGI was 23.2 µM in test [7], 90.3 µM in [8] and 77.3 µM in [9].

Regarding `O=C(O)C(Cc1c[nH]c2ccccc12)N=Cc1nc(-c2ccccc2)oc1O` (centres undefined), the TGI in [2], in [3], in [4], in [5], in test [6] and in test [7] was greater than 100 µM throughout. Further, the TGI in test [8] and in test [9] was greater than 100 µM each time.

Turning to `COc1ccc(CNC2=C(NC(C)=O)C(=O)c3ccccc3C2=O)cc1`, the TGI was 22.8 µM in test [2]; 40.6 µM in test [3]; 14.9 µM in test [4]; greater than 50 µM in [5]; greater than 50 µM in test [7]; 17.4 µM in test [9].

With `COC(=O)N/N=C(/CCN1CCCC1)CC(c1ccccc1)c1c(O)c2ccccc2oc1=O` (centres undefined), the TGI in test [1], in [2], in test [3], in test [4], in [5] and in [7] was greater than 100 µM throughout. The TGI in test [8] and in [9] was greater than 100 µM each time.

Consider `COc1ccc(NC(=O)C(=O)C2CNC(=O)NC2=O)c(OC)c1` (centres undefined), for which the TGI in test [1], in test [2], in [3], in test [4], in test [5] and in test [6] was greater than 100 µM throughout. Moreover, the TGI in test [7] and in test [8] was greater than 100 µM in each case.

These data come from PubChem BioAssay (NCI).
